Measured values published in patent publication US20260285855A1, “HETEROARYL DERIVATIVES AS DDRS INHIBITORS” (CHIESI FARMACEUTICI S.P.A., priority 2023, published 2026).

Assays:
DDR1 = biological target: T1, DDR1 (Homo sapiens, UniProt Q08345); assay: LanthaScreen Europium Kinase Binding assay, DDR1; details: 5 nM DDR1, 20 nM Kinase Tracer 178, 1 h at rt; Ki from IC50 by Cheng-Prusoff; read-out: Ki DDR1
T1 construct: purchased Carna Biosciences
Description: (§1) DDR1 and DDR2 binding assays were performed using Life Technologies LanthaScreen™ Europium Kinase Binding assay. […] IC50 values were determined in GraphPad Prism 7.0 software, using 4 parameter model: log (inhibitor) vs. response. IC50 values were converted in Ki using the Cheng-Prusoff equation (Ki-IC50/(1+ [Tracer]/Kd).

DDR2 = biological target: T2, DDR2 (Homo sapiens, UniProt Q16832); assay: LanthaScreen Europium Kinase Binding assay, DDR2; details: 5 nM DDR2, 10 nM Kinase Tracer 178, 1 h at rt; Ki from IC50 by Cheng-Prusoff; read-out: Ki DDR2
T2 construct: purchased Life Technologies
T2 sequence (Q16832 22-855): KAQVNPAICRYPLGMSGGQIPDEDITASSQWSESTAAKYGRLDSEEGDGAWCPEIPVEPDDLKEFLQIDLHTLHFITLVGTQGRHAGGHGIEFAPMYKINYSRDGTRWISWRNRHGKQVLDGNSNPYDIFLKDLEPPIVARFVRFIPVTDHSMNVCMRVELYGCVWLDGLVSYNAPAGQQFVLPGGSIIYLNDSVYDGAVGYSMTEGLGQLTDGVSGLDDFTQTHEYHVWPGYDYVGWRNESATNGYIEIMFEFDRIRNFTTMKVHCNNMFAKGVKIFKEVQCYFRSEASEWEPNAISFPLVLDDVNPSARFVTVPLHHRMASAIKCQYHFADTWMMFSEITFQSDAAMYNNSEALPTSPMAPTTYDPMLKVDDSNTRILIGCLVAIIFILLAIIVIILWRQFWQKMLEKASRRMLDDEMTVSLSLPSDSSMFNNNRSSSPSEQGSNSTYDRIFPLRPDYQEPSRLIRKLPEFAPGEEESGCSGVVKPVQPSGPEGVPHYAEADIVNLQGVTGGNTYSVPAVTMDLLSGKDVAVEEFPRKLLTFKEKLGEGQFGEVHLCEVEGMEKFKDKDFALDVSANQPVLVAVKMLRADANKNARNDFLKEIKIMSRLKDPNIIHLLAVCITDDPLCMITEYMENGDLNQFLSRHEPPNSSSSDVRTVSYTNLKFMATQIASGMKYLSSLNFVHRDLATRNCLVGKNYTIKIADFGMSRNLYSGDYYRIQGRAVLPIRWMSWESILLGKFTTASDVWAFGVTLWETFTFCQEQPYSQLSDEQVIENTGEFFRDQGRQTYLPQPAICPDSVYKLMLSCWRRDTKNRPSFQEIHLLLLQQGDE
Description: as §1

T1 sequence (Q08345 19-913): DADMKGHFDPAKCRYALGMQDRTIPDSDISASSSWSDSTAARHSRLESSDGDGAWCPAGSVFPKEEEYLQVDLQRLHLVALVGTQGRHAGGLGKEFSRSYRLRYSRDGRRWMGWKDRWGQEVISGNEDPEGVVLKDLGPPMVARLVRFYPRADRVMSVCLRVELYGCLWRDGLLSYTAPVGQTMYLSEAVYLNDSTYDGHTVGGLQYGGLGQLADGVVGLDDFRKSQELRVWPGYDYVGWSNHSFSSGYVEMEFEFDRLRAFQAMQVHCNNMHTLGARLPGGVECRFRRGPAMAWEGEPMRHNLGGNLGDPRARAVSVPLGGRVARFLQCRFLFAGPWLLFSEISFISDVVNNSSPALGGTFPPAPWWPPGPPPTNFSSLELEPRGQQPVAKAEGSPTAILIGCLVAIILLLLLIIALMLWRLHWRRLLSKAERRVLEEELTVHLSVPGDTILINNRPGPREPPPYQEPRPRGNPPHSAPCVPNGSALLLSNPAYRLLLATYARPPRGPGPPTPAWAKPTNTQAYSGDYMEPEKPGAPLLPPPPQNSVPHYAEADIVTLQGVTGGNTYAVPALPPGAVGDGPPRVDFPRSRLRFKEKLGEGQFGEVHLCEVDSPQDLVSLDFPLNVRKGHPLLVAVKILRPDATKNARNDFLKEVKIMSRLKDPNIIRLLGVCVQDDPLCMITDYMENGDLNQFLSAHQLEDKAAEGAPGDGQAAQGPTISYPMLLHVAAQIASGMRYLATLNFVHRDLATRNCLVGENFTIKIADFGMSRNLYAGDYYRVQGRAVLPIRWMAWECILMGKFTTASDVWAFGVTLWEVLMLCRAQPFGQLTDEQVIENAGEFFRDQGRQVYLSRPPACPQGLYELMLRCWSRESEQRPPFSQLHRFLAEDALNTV

| Ki (DDR1) [nM] | Ki (DDR2) [nM] | Compound |
| --- | --- | --- |
| < 5 | 5 to 25 | O=C(Nc1cccc(C(F)(F)F)c1)NC1CC2(C1)CN(C(=O)c1cnn3ccn(CC4COC4)c13)C2 [Example 166, 1-(2-(1-(oxetan-3-ylmethyl)-1H-imidazo[1,2-b]pyrazole-7-carbonyl)-2-azaspiro[3.3]heptan-6-yl)-3-(3-(trifluoromethyl)phenyl)urea] |
| < 5 | 5 to 25 | O=C(Nc1cccc(C(F)(F)F)c1)NC1CC2(C1)CN(C(=O)c1cnn3ccn(C4COC4)c13)C2 [Example 167, 1-(2-(1-(oxetan-3-yl)-1H-imidazo[1,2-b]pyrazole-7-carbonyl)-2-azaspiro[3.3]heptan-6-yl)-3-(3-(trifluoromethyl)phenyl)urea] |
| < 5 | 5 to 25 | Cn1ccn2ncc(C(=O)N3CC4(CC(NC(=O)Nc5cc(C(F)(F)F)cc(C#N)n5)C4)C3)c12 [Example 168, 1-(6-cyano-4-(trifluoromethyl)pyridin-2-yl)-3-(2-(1-methyl-1H-imidazo[1,2-b]pyrazole-7-carbonyl)-2-azaspiro[3.3]heptan-6-yl)urea] |
| < 5 | 5 to 25 | CN(C(=O)Nc1cncc(C(F)(F)F)c1)C1CC2(C1)CN(C(=O)c1cnn3ccn(C)c13)C2 [Example 169, 1-methyl-1-(2-(1-methyl-1H-imidazo[1,2-b]pyrazole-7-carbonyl)-2-azaspiro[3.3]heptan-6-yl)-3-(5-(trifluoromethyl)pyridin-3-yl)urea] |
| 5 to 25 | > 100 | CN(C(=O)Nc1cc(C(F)(F)F)ncn1)C1CC2(C1)CN(C(=O)c1cnn3ccn(C)c13)C2 [Example 170, 1-methyl-1-(2-(1-methyl-1H-imidazo[1,2-b]pyrazole-7-carbonyl)-2-azaspiro[3.3]heptan-6-yl)-3-(6-(trifluoromethyl)pyrimidin-4-yl)urea] |
| < 5 | 5 to 25 | Cc1ncc(C(F)(F)F)cc1NC(=O)NC1CC2(C1)CN(C(=O)c1cnn3ccn(C)c13)C2 [Example 171, 1-(2-(1-methyl-1H-imidazo[1,2-b]pyrazole-7-carbonyl)-2-azaspiro[3.3]heptan-6-yl)-3-(2-methyl-5-(trifluoromethyl)pyridin-3-yl)urea] |
| < 5 | 5 to 25 | CN(C(=O)Nc1cncc(OC(F)(F)F)c1)C1CC2(C1)CN(C(=O)c1cnn3ccn(C)c13)C2 [Example 172, 1-methyl-1-(2-(1-methyl-1H-imidazo[1,2-b]pyrazole-7-carbonyl)-2-azaspiro[3.3]heptan-6-yl)-3-(5-(trifluoromethoxy)pyridin-3-yl)urea] |
| < 5 | 25 to 100 | CN(C(=O)Nc1cncc(C(C)(F)F)c1)C1CC2(C1)CN(C(=O)c1cnn3ccn(C)c13)C2 [Example 173, 3-(5-(1,1-difluoroethyl)pyridin-3-yl)-1-methyl-1-(2-(1-methyl-1H-imidazo[1,2-b]pyrazole-7-carbonyl)-2-azaspiro[3.3]heptan-6-yl)urea] |
| < 5 | 5 to 25 | Cn1ccn2ncc(C(=O)N3CC4(CC(N(CC(F)(F)F)C(=O)Nc5cccc(C(F)(F)F)c5)C4)C3)c12 [Example 174, 1-(2-(1-methyl-1H-imidazo[1,2-b]pyrazole-7-carbonyl)-2-azaspiro[3.3]heptan-6-yl)-1-(2,2,2-trifluoroethyl)-3-(3-(trifluoromethyl)phenyl)urea] |
| 5 to 25 | 25 to 100 | CN(C(=O)Nc1cncc(C(F)(F)F)c1)C1CC2(C1)CN(C(=O)c1cnn3ccncc13)C2 [Example 175, 1-methyl-1-(2-(pyrazolo[1,5-a]pyrazine-3-carbonyl)-2-azaspiro[3.3]heptan-6-yl)-3-(5-(trifluoromethyl)pyridin-3-yl)urea] |
| 5 to 25 | 25 to 100 | CN(C(=O)Nc1cncc(OC(F)(F)F)c1)C1CC2(C1)CN(C(=O)c1cnn3ccncc13)C2 [Example 176, 1-methyl-1-(2-(pyrazolo[1,5-a]pyrazine-3-carbonyl)-2-azaspiro[3.3]heptan-6-yl)-3-(5-(trifluoromethoxy)pyridin-3-yl)urea] |
| < 5 | 25 to 100 | CN(C(=O)Nc1cc(OC(F)F)ccn1)C1CC2(C1)CN(C(=O)c1cnn3ccn(C)c13)C2 [Example 177, 3-(4-(difluoromethoxy)pyridin-2-yl)-1-methyl-1-(2-(1-methyl-1H-imidazo[1,2-b]pyrazole-7-carbonyl)-2-azaspiro[3.3]heptan-6-yl)urea] |
| < 5 | 25 to 100 | CN(C(=O)Nc1cc(C(F)(F)F)ncn1)C1CC2(C1)CN(C(=O)c1cnn3ccsc13)C2 [Example 178, 1-methyl-1-(2-(pyrazolo[5,1-b]thiazole-7-carbonyl)-2-azaspiro[3.3]heptan-6-yl)-3-(6-(trifluoromethyl)pyrimidin-4-yl)urea] |
| < 5 | 5 to 25 | CN(C(=O)Nc1cncc(OC(F)(F)F)c1)C1CC2(C1)CN(C(=O)c1cnn3ccsc13)C2 [Example 179, 1-methyl-1-(2-(pyrazolo[5,1-b]thiazole-7-carbonyl)-2-azaspiro[3.3]heptan-6-yl)-3-(5-(trifluoromethoxy)pyridin-3-yl)urea] |
| < 5 | 5 to 25 | Cc1ncc(NC(=O)N(C)C2CC3(C2)CN(C(=O)c2cnn4ccn(C)c24)C3)cc1C(F)(F)F [Example 180, 1-methyl-1-(2-(1-methyl-1H-imidazo[1,2-b]pyrazole-7-carbonyl)-2-azaspiro[3.3]heptan-6-yl)-3-(6-methyl-5-(trifluoromethyl)pyridin-3-yl)urea] |
| < 5 | 5 to 25 | Cc1ncc(NC(=O)NC2CC3(C2)CN(C(=O)c2cnn4ccn(C)c24)C3)cc1C(F)(F)F [Example 181, 1-(2-(1-methyl-1H-imidazo[1,2-b]pyrazole-7-carbonyl)-2-azaspiro[3.3]heptan-6-yl)-3-(6-methyl-5-(trifluoromethyl)pyridin-3-yl)urea] |
| < 5 | < 5 | Cn1cc(-c2ccc3c(C(=O)N4CC5(CC(NC(=O)Nc6cccc(C(F)(F)F)c6)C5)C4)cnn3c2)cn1 [Example 182, 1-(2-(6-(1-methyl-1H-pyrazol-4-yl)pyrazolo[1,5-a]pyridine-3-carbonyl)-2-azaspiro[3.3]heptan-6-yl)-3-(3-(trifluoromethyl)phenyl)urea] |
| < 5 | 5 to 25 | O=C(Nc1cccc(C(F)(F)F)c1)NC1CC2(C1)CN(C(=O)c1cnn3ccc(N4CCS(=O)(=O)CC4)cc13)C2 [Example 183, 1-(2-(5-(1,1-dioxidothiomorpholino)pyrazolo[1,5-a]pyridine-3-carbonyl)-2-azaspiro[3.3]heptan-6-yl)-3-(3-(trifluoromethyl)phenyl)urea] |
| < 5 | < 5 | Nc1ccn2ncc(C(=O)N3CC4(CC(NC(=O)Nc5cccc(C(F)(F)F)c5)C4)C3)c2c1 [Example 184, 1-(2-(5-aminopyrazolo[1,5-a]pyridine-3-carbonyl)-2-azaspiro[3.3]heptan-6-yl)-3-(3-(trifluoromethyl)phenyl)urea] |
| < 5 | < 5 | O=C(Nc1cccc(C(F)(F)F)c1)NC1CC2(C1)CN(C(=O)c1cnn3ccc(N4CCC(O)C4)cc13)C2 (stereo not shown) [Example 185, 1-(2-(5-(3-hydroxypyrrolidin-1-yl)pyrazolo[1,5-a]pyridine-3-carbonyl)-2-azaspiro[3.3]heptan-6-yl)-3-(3-(trifluoromethyl)phenyl)urea] |
| < 5 | 5 to 25 | CN1CCN(c2ccn3ncc(C(=O)N4CC5(CC(NC(=O)Nc6cccc(C(F)(F)F)c6)C5)C4)c3c2)C(=O)C1 [Example 186, 1-(2-(5-(4-methyl-2-oxopiperazin-1-yl)pyrazolo[1,5-a]pyridine-3-carbonyl)-2-azaspiro[3.3]heptan-6-yl)-3-(3-(trifluoromethyl)phenyl)urea] |
| < 5 | 5 to 25 | Cn1ccn2ncc(C(=O)N3CC4(CC(N(C(=O)Nc5cccc(C(F)(F)F)c5)C5CC5)C4)C3)c12 [Example 187, 1-cyclopropyl-1-(2-(1-methyl-1H-imidazo[1,2-b]pyrazole-7-carbonyl)-2-azaspiro[3.3]heptan-6-yl)-3-(3-(trifluoromethyl)phenyl)urea] |
| < 5 | 5 to 25 | Cc1ccc(OC(F)(F)F)cc1NC(=O)N(C)C1CC2(C1)CN(C(=O)c1ccnc3[nH]ncc13)C2 [Example 188, 1-(2-(1H-pyrazolo[3,4-b]pyridine-4-carbonyl)-2-azaspiro[3.3]heptan-6-yl)-1-methyl-3-(2-methyl-5-(trifluoromethoxy)phenyl)urea] |
